Data as given in patent US20250074911A1, “MACROCYCLIC BTK INHIBITORS” (Crossfire Oncology Holding B.V., priority 2021, published 2025).

Key:
[1] = test system: wt-REC-1 mantle cell lymphoma cells; test: Cell proliferation assay wt-REC-1 (ATPlite, 72 hours); assay type: cell-based; conditions: 72 h; read-out: IC50 wt-REC-1
In short: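 Luminescent viability read over 72 h, start-of-incubation signal recorded separately to separate growth from cell death. Percentage growth referenced to compound-free 0.3% DMSO wells; IC50 from 4-parameter logistic fit.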

BTK T474I = BTK T474I (Homo sapiens (Human), UniProt Q06187, T474I); test: Binding kinetics measurements (Surface Plasmon Resonance) on BTK T474I; conditions: for Kd: binding affinity by Surface Plasmon Resonance (SPR); for Tau (h) BTK T474I (Act): target residence time, SPR
Sequence of BTK T474I (Q06187 whole entry T474I): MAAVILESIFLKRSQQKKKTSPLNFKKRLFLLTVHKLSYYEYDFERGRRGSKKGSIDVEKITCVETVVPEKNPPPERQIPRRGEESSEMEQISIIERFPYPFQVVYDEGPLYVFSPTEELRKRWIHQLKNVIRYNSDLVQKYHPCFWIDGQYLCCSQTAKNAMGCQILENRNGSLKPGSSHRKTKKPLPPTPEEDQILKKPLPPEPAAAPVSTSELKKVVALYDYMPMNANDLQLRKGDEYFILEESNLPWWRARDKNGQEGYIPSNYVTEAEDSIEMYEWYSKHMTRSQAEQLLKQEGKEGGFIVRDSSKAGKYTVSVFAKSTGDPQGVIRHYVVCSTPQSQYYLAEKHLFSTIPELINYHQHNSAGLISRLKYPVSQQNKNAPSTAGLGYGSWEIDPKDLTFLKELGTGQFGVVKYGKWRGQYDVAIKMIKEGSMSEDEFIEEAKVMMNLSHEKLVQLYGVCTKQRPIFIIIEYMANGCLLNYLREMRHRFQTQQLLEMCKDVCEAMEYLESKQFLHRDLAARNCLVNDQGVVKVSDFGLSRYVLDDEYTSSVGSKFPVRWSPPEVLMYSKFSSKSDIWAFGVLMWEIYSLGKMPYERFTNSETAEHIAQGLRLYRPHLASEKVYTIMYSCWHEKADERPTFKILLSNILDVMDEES
In short: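 SPR, single cycle kinetics: 5 injections, 3.16-316 nM, 30 μl/min (avoids mass transport limitation), 22° C, 1% DMSO buffer. Protein immobilized at 4° C on streptavidin chip, biocytin block. Blank run first; reference channel and buffer curves subtracted.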

[2] = test system: wt-TMD8 diffuse large B-cell lymphoma cells; test: Cell proliferation assay wt-TMD8 (ATPlite, 120 hours); assay type: cell-based; conditions: B-cell; wt-TMD8 cells, 120 hours, ATPlite; read-out: IC50 wt-TMD8
In short: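 wt-TMD8 DLBCL cells, 1600 per well in RPMI-1640 with 10% FBS, rested ≥5 h then exposed to compound for 120 h at 37° C, 5% CO2. Viability read by ATPlite luminescence; percentage growth calculated relative to start-of-incubation signal and untreated 0.3% DMSO maximum growth.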

Row | SMILES | IC50 [1] | Kd (BTK T474I) | Tau (h) BTK T474I (Act) (BTK T474I) | IC50 [2]
1 | Nc1ncc2c3c1c(-c1ccc(C(=O)Nc4cc(C(F)(F)F)ccn4)cc1)nn3[C@@H]1CCC[C@H](C1)NC(=O)CCOC/C=C/2 [Example 25] | < 100 nM | < 2 nM | 3.02 h | < 100 nM
2 | C[C@@H]1CC(=O)N[C@@H]2CCC[C@H](C2)n2nc(-c3ccc(C(=O)Nc4cc(C(F)(F)F)ccn4)cc3)c3c(N)ncc(c32)/C=C/CCN1 [Example 45] | < 100 nM | < 2 nM | 2.64 h | < 100 nM
3 | N#Cc1ccnc(NC(=O)c2ccc(-c3nc4n5c(cnc(N)c35)/C=C/CCCCCC(=O)N[C@@H]3CCC[C@@H]4C3)cc2)c1 [Example 184] | < 100 nM | – | 0.85 h | < 100 nM
4 | N#Cc1ccnc(NC(=O)c2ccc(-c3nc4n5c(cnc(N)c35)/C=C/CCOCCC(=O)N[C@@H]3CC[C@@H]4C3)cc2)c1 [Example 201] | < 100 nM | – | 1.15 h | < 100 nM
5 | N#Cc1ccnc(NC(=O)c2ccc(-c3nc4n5c(cnc(N)c35)/C=C/CCCCCC(=O)N[C@@H]3CC[C@@H]4C3)cc2)c1 [Example 204] | < 100 nM | – | 0.90 h | < 100 nM
